Measured values reported in patent US20050064383A1, “Methods and apparatus for producing gender enriched sperm” (priority 2000, published 2005).

What was measured:
bull sperm [1] = assay: Overnight low temperature staining of bull sperm with Hoechst 33342, separation into X- and Y-sperm by flow cytometry; type: cell-based; settings: citrate buffer pH 6.9
Experimental: (§1) Bull sperm in citrate buffer at pH 6.9-7.0 is sent from collection facility to sorter facility by same-day delivery at 18° C. Upon receipt the sperm is divided into three portions and stored and stained overnight with Hoechst 33342 dye at 18° C., 20° C., or 22° C. (all in citrate buffer at pH 6.9).

bull sperm [2] = assay: Staining of bull sperm with Hoechst 33342 in TEST buffer, split index on Coulter Epics flow cytometer; type: cell-based
Experimental: Bull semen was collected from a sexually mature bull using an artificial vagina and the sample was diluted with citrate buffer (pH 7.0) at 1 part semen: 3 parts buffer. The sample was transferred to the flow cytometry laboratory at 18° C. The concentration of the sample is determined using a hemocytometer and the cells were diluted with an appropriate amount of TEST buffer (pH 7.35) to obtain 100 million sperm per mL. Ten microliters of a stock concentration (5 mg/ml in dH2O) of Hoechst 33342 was added to the sample of sperm and the cells were incubated at 25° C. for up to 4 hours. A second population of cells was handled in like manner but was incubated at 35° C. for 1 hour to serve as a positive control. A third population of cells was handled in like manner but the buffer pH is 7.2 instead of pH 7.35 to determine if buffer pH influences uptake of Hoechst 33342. At one-hour intervals for up to 4 hours, 200 μL micro aliquots were removed from the samples and evaluated using a Coulter Epics flow cytometer. The split index information was collected for each sample per treatment group. [table]

bull sperm [3] = assay: Staining of bull sperm with Hoechst dye at 24° C. in citrate or HEPES buffer, separation by flow cytometry; type: cell-based
Experimental: Bull sperm are collected at a collection facility, extended in citrate buffer pH 6.9 and sent at 18° C. by overnight express mail to a sorting facility. The sample is divided into two portions, centrifuged to separate sperm from supernatant, and each portion resuspended respectively in citrate buffer and HEPES buffer, both at pH 7.4. 0.1% BSA is present in the HEPES buffer.

[4] = Buffer solubility by HPLC; settings: maximum measurable 90 micromolar
Experimental: One microliter (μL) of the stock solution was then added to 110 μL of aqueous buffer solution placed in an HPLC (high performance liquid chromatography) vial and mixed by inverting a number of times. The samples were allowed to stand for 30 minutes and then centrifuged for 30 minutes. The centrifugation is required to deposit suspended material that could interfere with the analysis to the side of the vial. The solutions were then analyzed by HPLC by sampling the solution without touching the vial bottom or sides. Shown below are the measured quantities remaining in solution in the various buffers.

bull sperm [5] = assay: Sperm motility/viability after overnight incubation with HO dye; type: cell-based; settings: overnight incubation at 18, 20 or 22° C., 0 hours
Experimental: as §1

SMILES: CCOc1ccc(-c2nc3ccc(-c4nc5ccc(N6CCN(C)CC6)cc5[nH]4)cc3[nH]2)cc1 [Hoechst 33342]
- separation of Y- and X-bearing sperm by flow cytometry (bull sperm [1]; stained 18° C. o/n, 0 hr incubation @ RT): no separation
- separation of Y- and X-bearing sperm by flow cytometry (bull sperm [1]; stained 18° C. o/n, 1.5 hr incubation @ RT): no separation
- separation of Y- and X-bearing sperm by flow cytometry (bull sperm [1]; stained 18° C. o/n, 5.0 hr incubation @ RT): no separation
- separation of Y- and X-bearing sperm by flow cytometry (bull sperm [1]; stained 20° C. o/n, 0 hr incubation @ RT): no separation
- separation of Y- and X-bearing sperm by flow cytometry (bull sperm [1]; stained 20° C. o/n, 1.5 hr incubation @ RT): no separation
- separation of Y- and X-bearing sperm by flow cytometry (bull sperm [1]; stained 20° C. o/n, 5.0 hr incubation @ RT): no separation
- separation of Y- and X-bearing sperm by flow cytometry (bull sperm [1]; stained 22° C. o/n, 0 hr incubation @ RT): no separation
- 1 h Split index (bull sperm [2]; 25° C. in TEST pH 7.2): 0%
- 2 h split index (bull sperm [2]; 25° C. in TEST pH 7.2): 0%
- 3 h split index (bull sperm [2]; 25° C. in TEST pH 7.2): 0%
- 4 h split index (bull sperm [2]; 25° C. in TEST pH 7.2): 0%
- 1 h Split index (bull sperm [2]; 25° C. in TEST pH 7.35): 0%
- 2 h split index (bull sperm [2]; 25° C. in TEST pH 7.35): 0%
- 3 h split index (bull sperm [2]; 25° C. in TEST pH 7.35): 10%
- 4 h split index (bull sperm [2]; 25° C. in TEST pH 7.35): 30%
- 1 h Split index (bull sperm [2]; 35° C. control (positive control), 1 hour): 30%
- Sort results after 2.5 h incubation at room temperature (24° C.) (bull sperm [3]; Sperm in HEPES buffer, pH 7.4, 0.1% BSA): Sperm were separated into X and Y
- Sort results after 2.5 h incubation at room temperature (24° C.) (bull sperm [3]; Sperm in NaCitrate buffer, pH 7.4): No separation into X and Y
- quantity remaining in solution (solubility) ([4]; HEPES Buffer pH 6.85): 79 µM
- quantity remaining in solution (solubility) ([4]; HEPES Buffer pH 7.02): 73 µM
- quantity remaining in solution (solubility) ([4]; HEPES Buffer pH 7.23): 27 µM
- quantity remaining in solution (solubility) ([4]; HEPES Buffer pH 7.36): 23 µM
- quantity remaining in solution (solubility) ([4]; HEPES Buffer pH 7.52): 36 µM
- quantity remaining in solution (solubility) ([4]; TES Buffer pH 6.85): 79 µM
- quantity remaining in solution (solubility) ([4]; TES Buffer pH 6.98): 80 µM
- quantity remaining in solution (solubility) ([4]; TES Buffer pH 7.19): 78 µM
- quantity remaining in solution (solubility) ([4]; TES Buffer pH 7.34): 75 µM
- quantity remaining in solution (solubility) ([4]; TES Buffer pH 7.54): 57 µM
- quantity remaining in solution (solubility) ([4]; Tris Buffer pH 6.76): 34 µM
- quantity remaining in solution (solubility) ([4]; Tris Buffer pH 6.95): 42 µM
- quantity remaining in solution (solubility) ([4]; Tris Buffer pH 7.15): 49 µM
- quantity remaining in solution (solubility) ([4]; Tris Buffer pH 7.36): 22 µM
- quantity remaining in solution (solubility) ([4]; Tris Buffer pH 7.53): 15 µM
- effect of prolonged exposure to dye medium on sperm viability (motility) (bull sperm [5]): does not compromise sperm viability
